Results from patent US20220288001A1, “CREATINE FOR IMMUNOTHERAPY” (The Regents of the University of California, priority 2019, published 2022).
“Also recorded” adds a separate entry of the source.

Legend:
Assay type in all cases: cell-based, mouse
CD8 T cells [1] = assay: CD8 T cell activation in vitro with ATP supplementation (CD25 flow cytometry, IFN-γ ELISA); settings: ATP 100 μM, anti-CD3
Method: (§1) CD8 T cells were cultured in vitro in standard T cell culture medium comprising RPMI 1640 (Cat #10040, Corning), 10% FBS (Cat #F2442, Sigma), 1% Penicillin-Streptomycin-Glutamine (Cat #10378016, Gibco), 1% MEM Non-Essential Amino Acids Solution (Cat #11140050, Gibco), 1% HEPES (Cat #15630080, Gibco), 1% Sodium Pyruvate (100 mM) (Cat #11360070, Gibco), and 0.05 mM β -Mercaptoethanol (Cat #M3148, Sigma). Unless otherwise indicated, cells were seeded at 0.5×10^6 cells per well in 24-well plates and stimulated with plate-bound anti-CD3 (5 μg/ml) (clone 145-2C11), for up to 5 days. At indicated time point(s), cells were collected and analyzed for CrT mRNA expression using qPCR, for cell proliferation through cell counting, for viability through Annexin V/7-AAD staining followed by flow cytometry analysis, for surface activation marker (CD25) expression through surface staining followed by flow cytometry analysis, for effector molecule (Granzyme B, IL-2, and IFN-γ) production through intracellular staining followed by flow cytometry analysis, and for cytokine (IL-2 and IFN-γ) secretion through collecting cell culture supernatants followed by ELISA analysis. CrT protein expression and TCR signaling events were analyzed using western blot analysis.
(§2) In some experiments, ATP (adenosine-5′-triphosphate disodium salt hydrate, Cat #A6419, Sigma-Aldrich) was reconstituted in sterile PBS and added to T cell culture (100 μM) for two to three days along with anti-CD3 stimulation, followed by analyzing T cell surface activation marker (CD25) expression using flow cytometry, and analyzing effector cytokine (IFN-γ) secretion using ELISA. In some experiments, T cells were stimulated with anti-CD3 for 48 hours, rested at 4° C. for 2 hours, then restimulated with anti-CD3 for 30 minutes in the presence or absence of ATP supplementation (100 μM) followed by analyzing TCR signaling events using western blot.
ELISA was performed for the detection of cytokines according to a BD Biosciences protocol. […] The absorbance was measured at 450 nm using an Infinite M1000 microplate reader (Tecan).

TCR signaling = assay: Western blot of TCR signaling events in CrT-KO CD8 T cells with ATP supplementation; settings: ATP 100 μM, restimulated with anti-CD3 30 minutes
Method: as §2
Total protein was extracted using RIPA lysis buffer (Thermo Fisher Scientific) supplemented with a phosphatase inhibitor cocktail (Sigma-Aldrich) and a protease inhibitor cocktail (Roche) following the manufacturers' instructions. Nuclear protein was extracted using a Nuclear Protein Extraction Kit (Thermo Fisher Scientific) following the manufacturer's instructions, or using homemade reagents (10 mM HEPES pH 7.9, 10 mM KCl, 0.34 M sucrose, 10% glycerol, 1 mM DTT, 0.1% Triton X-100, 1.5 mM MgCl2 and protease inhibitor cocktail) following a previously established protocol (Ma et al., 2019). Protein concentration was measured by a BCA assay (Cat #23228 and Cat #1859078, Thermo Fisher Scientific). […]

AMPK = assay: Western blot of AMPK and TCR signaling events in CD8 T cells with AICAR treatment
Method: In some other experiments, AICAR (5-aminoimidazole-4-carboxamide 1-β-D-ribofuranoside, Cat #A9978, Sigma-Aldrich), an AMPK activator, was reconstituted in DMSO and used to pretreat T cells for 30 minutes, at the concentration of 2 mM followed by 20 minutes of anti-CD3 stimulation for western blot analysis of TCR signaling events, or at the concentration of 250 μM followed by 16 hours of anti-CD3 stimulation for flow cytometry analysis of CD25 expression and ELISA analysis of IL-2 production.
Total protein was extracted using RIPA lysis buffer (Thermo Fisher Scientific) supplemented with a phosphatase inhibitor cocktail (Sigma-Aldrich) and a protease inhibitor cocktail (Roche) following the manufacturers' instructions. Nuclear protein was extracted using a Nuclear Protein Extraction Kit (Thermo Fisher Scientific) following the manufacturer's instructions, or using homemade reagents (10 mM HEPES pH 7.9, 10 mM KCl, 0.34 M sucrose, 10% glycerol, 1 mM DTT, 0.1% Triton X-100, 1.5 mM MgCl2 and protease inhibitor cocktail) following a previously established protocol (Ma et al., 2019). Protein concentration was measured by a BCA assay (Cat #23228 and Cat #1859078, Thermo Fisher Scientific). Equal amounts of protein were resolved on a 12% SDS-PAGE gel and then transferred to a PVDF membrane by electrophoresis. The following anti-mouse antibodies were purchased from Cell Signaling Technology and used to blot for the protein of interest: p-Zap-70 (cat #2705S; clone 99F2); Zap-70 (cat #2717S; clone Y319); p-Lck (cat #2751S; clone Y505); Lck (cat #2752S); p-c-Jun (cat #9261S; clone S63); NFAT (cat #4389S); NF-κB p65 (cat #8242P; clone D14E12); AMPK (cat #5831T; clone D5A2); p-AMPK (cat #2535T; clone 40H9), secondary anti-mouse (cat #7076P2), and secondary anti-rabbit (cat #7074P2). Anti-mouse CrT (SLC6A8) (cat #PA5-37060) was purchased from Thermo Fisher Scientific. β-Actin (Santa Cruz Biotechnology Inc.; cat #sc-69879; clone AC-15) was used as an internal control for total protein extracts, while Lamin A (Santa Cruz Biotechnology; cat #sc-71481; clone 4A58) was used as an internal control for nuclear protein extracts. Signals were visualized with autoradiography using an ECL system (Cat #RPN2232, Thermo Fisher Scientific). Data analysis was performed using ImageJ software (NIH).

CD8 T cells [2] = assay: CD8 T cell activation with AICAR treatment (CD25 flow cytometry, IL-2 ELISA); settings: CrT-WT and CrT-KO CD8 T cells; AICAR 250 μM; anti-CD3 16 hours
Method: as §1, with “blot analysis. […]” for “blot analysis.”

Structure (SMILES)	effector cytokine IFN-γ production (CD8 T cells [1]; CrT-KO CD8 T cells, day 3)	surface activation marker CD25 expression (CD8 T cells [1]; CrT-KO CD8 T cells, day 3)	activation of CD8 T cells (CD25) (CD8 T cells [1]; CrT-WT CD8 T cells, 48 hours, disodium salt hydrate)	TCR signaling deficiencies (TCR signaling)	activation of NFAT (AMPK; CD8 T cells, AICAR 2 mM)	activation of Zap-70 (AMPK; CD8 T cells, AICAR 2 mM)	AP-1 transcription factor activation (c-Jun subunit) (AMPK; CrT-WT and CrT-KO CD8 T cells, AICAR 2 mM)	AMPK activation (AMPK; CrT-WT and CrT-KO CD8 T cells, AICAR 2 mM pretreatment 30 minutes)	cell surface activation marker expression (CD25) (CD8 T cells [2])	effector cytokine production (IL-2) (CD8 T cells [2])
Nc1ncnc2c1ncn2[C@@H]1O[C@H](COP(=O)([O-])OP(=O)([O-])OP(=O)(O)O)[C@@H](O)[C@H]1O.O.[Na+].[Na+] [ATP, adenosine-5′-triphosphate disodium salt hydrate]	enhanced production	increased expression	further increased the activation; also recorded: further enhanced the activation	effectively rescued	–	–	–	–	–	–
NC(=O)c1ncn([C@@H]2O[C@H](CO)[C@@H](O)[C@H]2O)c1N [AICAR, 5-aminoimidazole-4-carboxamide 1-β-D-ribofuranoside]	–	–	–	–	not affected	not affected	significant reduction	markedly activated AMPK	significant reduction	significant reduction
